In PMC4981864, “Novel pH-Sensitive Cyclic Peptides” (Scientific Reports, 2016):
Ends that are not written are not given here. Peptide text beside a SMILES is read from it.

Columns and labels:
[1] = Steady-state tryptophan fluorescence and CD with and without POPC liposomes; format: physicochemical; settings: for maximum position of the fluorescence spectrum λmax, Pep, pH8: peptide in phosphate buffer pH 8, no liposomes; for maximum position of the fluorescence spectrum λmax, Pep, pH8 / maximum position of the fluorescence spectrum λmax, Pep-PC, pH3 / maximum position of the fluorescence spectrum λmax, Pep-PC, pH8: 5 μM peptide, excitation 280 nm, 25 °C; for maximum position of the fluorescence spectrum λmax, Pep-PC, pH3 / S, normalized area under the spectra, Pep-PC, pH3: with POPC liposomes pH 3; for maximum position of the fluorescence spectrum λmax, Pep-PC, pH3 / maximum position of the fluorescence spectrum λmax, Pep-PC, pH8: 1.25 mM lipids; for S, normalized area under the spectra, Pep-PC, pH3 / S, normalized area under the spectra, Pep-PC, pH8: normalized on area for peptide at pH 8 in absence of POPC; for maximum position of the fluorescence spectrum λmax, Pep-PC, pH8 / S, normalized area under the spectra, Pep-PC, pH8: with POPC liposomes pH 8
Experimental: (§1) Large unilamellar vesicles (LUVs) were prepared by extrusion. POPC, 1-palmitoyl-2-oleoyl-sn-glycero-3-phosphocholine (Avanti Polar Lipids), or a mixture of POPC with 0.5% of 18:1 NBD-PE, 1,2-dioleoyl-sn-glycero-3-phosphoethanolamine-N-7-nitro-2-1,3-benzoxadiazol-4-yl ammonium salt (Avanti Polar Lipids) were dissolved in chloroform, desolvated on a rotary evaporator, and dried under high vacuum for several hours. The phospholipid film was then rehydrated in 10 mM phosphate buffer pH 8.0, vortexed until the lipid bilayer was completely dissolved, and repeatedly (15–21 times) extruded through the membranes with 50 nm pore sizes to obtain LUVs.
Freshly prepared peptides and POPC vesicles were mixed to have 5 μM of a peptide and 1.25 mM of lipids in the final solution. Steady-state fluorescence measurements were carried out on a PC1 spectrofluorometer (ISS, Inc.) under temperature control at 25 °C. Tryptophan fluorescence was excited at 280 nm (there is no Phe or Tyr in the peptides) and recorded with the excitation and emission slits set at 1 nm. The polarizers in the excitation and emission paths were set at the “magic” angle (54.7° from the vertical orientation) and vertically (0°), respectively. Steady state CD measurements were carried out in MOS 450 spectropolarimeter (Bio-Logic, Inc.) with the same concentrations of peptide and lipids used in fluorescence measurements.

[2] = format: physicochemical; settings: pH 8
Experimental: as §1
pH-dependent partitioning of the peptides into a lipid bilayer of the membrane was investigated by the shift of the position of the fluorescence spectral maximum for the peptides in the presence POPC liposomes induced by a drop of pH from 8 to 2.5 by the addition of HCl. The peptides were incubated overnight with 50-nm POPC liposomes (final concentration of the peptides and POPC in solution was 5 μM and 1 mM, respectively), and pH decrease was achieved by the addition of aliquots of 4, 2, 1 and 0.1 M HCl. pH was measured by micro-electrode probe (Thermo Electron Corporation, Orion Ross Micro pH electrode). Fluorescence spectra were recorded at each pH value. The spectra were analyzed by the decomposition algorithms using on-line PFAST toolkit[47] (Protein Fluorescence and Structural Toolkit: http://pfast.phys.uri.edu/) to establish the position of the emission maximum. Finally, the positions of the fluorescence spectral maxima (λmax) were plotted versus pH, and the Henderson–Hasselbalch equation was used to fit the data (using Origin 8.5 software): […]
where [drawing 3] and [drawing 4] are the beginning and the end of the transition, respectively, and pKa – is the midpoint of the transition.

[3] = Dual quenching assay (acrylamide / 10-DN); format: physicochemical; settings: 7 μM peptide, 2.1 mM POPC; for percentage of fluorescence quenching, Pep-PC+AC pH3 / percentage of fluorescence quenching, Pep-PC+AC pH8: 235 mM acrylamide; for percentage of fluorescence quenching, Pep-PC+AC pH3 / percentage of fluorescence quenching, Pep-PC+10-DN pH3: pH 3; for percentage of fluorescence quenching, Pep-PC+AC pH8 / percentage of fluorescence quenching, Pep-PC+10-DN pH8: pH 8; for percentage of fluorescence quenching, Pep-PC+10-DN pH3 / percentage of fluorescence quenching, Pep-PC+10-DN pH8: 10% of lipids replaced by 10-DN
Text: To establish localization of the peptides within a lipid bilayer of membrane, dual quenching assay[28] was employed (Fig. 3 and Table S3). Effective quenching of fluorescence by acrylamide would occur only for tryptophan residues exposed to polar parts of the outer or inner leaflets of the bilayer. At the same time, tryptophan residues located in the middle of a membrane would be effectively quenched by 10-DN. The result of the dual quenching assay allows establishing if tryptophan residues were located in the middle of a membrane or close to the polar headgroups of the bilayer. […] Therefore, we also performed Förster resonance energy transfer (FRET) assay[29] (Fig. 4). First, symmetrically-labelled by NBD dye, POPC liposomes were prepared. Then, membrane-impermeable dithionite was used to chemically modify exposed NBD, which led to the quenching of NBD fluorescence. Thus, NBD dyes located at the outer leaflet of the bilayer were deactivated and excess of dithionite was removed by gel filtration. As a result, asymmetrically-labelled liposomes with active NBD at the inner leaflet were obtained. FRET was monitored from tryptophan residues of the peptides to NBD. Energy transfer might occur only when both fluorophores are in proximity to each other (within 5–15 Å). Thus, when tryptophan residues located at the outer leaflet of the bilayer no significant energy transfer to NBD at the inner leaflet would occur (the distance is about 50–60 Å). […] All other peptides were located at the outer leaflet of the bilayer at pH 8. Drop of pH promoted partitioning of all cyclic peptides into bilayer, which highest FRET for the c[E4W5C] at pH 3.
POPC liposomes without and with 10% of the lipids replaced by 10-doxylnonadecane (10-DN) (Avanti Polar Lipids) were prepared in 10 mM citrate-phosphate buffer pH 8.0. Peptides and POPC liposomes were mixed to generate final concentrations of 7 μM peptide and 2.1 mM POPC without and with 10-DN. […] Quencher, acrylamide (Sigma-Aldrich), was added to the samples of POPC liposomes containing no 10-DN, to have final concentration of 235 mM acrylamide. Concentration of peptides in all samples was kept constant. To observe quenching of tryptophan fluorescence by 10-DN or acrylamide, the tryptophan fluorescence was recorded as described above. The appropriate POPC blanks were measured and subtracted from the measured spectra before analysis. The percentage of quenching was calculated.

[4] = system: HeLa cells; settings: concentrations used in this study, treatment of 2-4 hours; cited from earlier work
Experimental: Symmetric, c[(WE)4WC], and asymmetric, c[E4W5C], cyclic peptides were evaluated for their ability to move polar cargo across the membrane. The experiments on live cells were performed at physiologically relevant pHs, such as pH 7.4 (extracellular pH of normal cells) and pH 6.0 (extracellular pH in the vicinity of cancer cells[12]). As a polar cargo, we used amanitin, which is a cell-impermeable cyclic p ...

Molecule | pH-dependent interaction with / partitioning into the lipid bilayer of membrane ([1]; fluorescence and CD, POPC liposomes, pH 8 and pH 3) | apparent pK (pKa) of peptide's partitioning into the bilayer [2] | maximum position of the fluorescence spectrum λmax, Pep, pH8 [1] [nm] | maximum position of the fluorescence spectrum λmax, Pep-PC, pH3 [1] [nm] | S, normalized area under the spectra, Pep-PC, pH3 [1] | maximum position of the fluorescence spectrum λmax, Pep-PC, pH8 [1] [nm] | S, normalized area under the spectra, Pep-PC, pH8 [1] | percentage of fluorescence quenching, Pep-PC+AC pH3 [3] [%] | percentage of fluorescence quenching, Pep-PC+AC pH8 [3] [%] | percentage of fluorescence quenching, Pep-PC+10-DN pH3 [3] [%] | percentage of fluorescence quenching, Pep-PC+10-DN pH8 [3] [%] | cell death by amanitin alone [4]
N=C(N)NCCC[C@@H]1NC(=O)[C@H](CS)NC(=O)[C@H](Cc2c[nH]c3ccccc23)NC(=O)[C@H](Cc2c[nH]c3ccccc23)NC(=O)[C@H](Cc2c[nH]c3ccccc23)NC(=O)[C@H](Cc2c[nH]c3ccccc23)NC(=O)[C@H](Cc2c[nH]c3ccccc23)NC(=O)[C@H](CCCNC(=N)N)NC(=O)[C@H](CCCNC(=N)N)NC(=O)[C@H](CCCNC(=N)N)NC1=O [c[R4W5C]] | does not exhibit pH-dependent changes |  |  |  |  |  |  |  |  |  |  | 
CC(C)C[C@@H]1NC(=O)[C@H](CS)NC(=O)[C@H](Cc2c[nH]c3ccccc23)NC(=O)[C@H](CCC(=O)O)NC(=O)[C@H](CC(C)C)NC(=O)[C@H](CCC(=O)O)NC(=O)[C@H](CC(C)C)NC(=O)[C@H](CCC(=O)O)NC(=O)[C@H](CC(C)C)NC(=O)[C@H](CCC(=O)O)NC1=O [c[(LE)4WC]] (cyclo(CLELELELEW)) |  | 4.7 | 348.7±0.3 | 339.6±1.2 | 1.1±0.1 | 348.2±0.6 | 1.1±0.0 | 59 | 96 | 17 | 0 | 
alpha-amanitin |  |  |  |  |  |  |  |  |  |  |  | does not induce cell death
O=C(O)CC[C@@H]1NC(=O)[C@H](Cc2c[nH]c3ccccc23)NC(=O)[C@H](CS)NC(=O)[C@H](Cc2c[nH]c3ccccc23)NC(=O)[C@H](CCC(=O)O)NC(=O)[C@H](Cc2c[nH]c3ccccc23)NC(=O)[C@H](CCC(=O)O)NC(=O)[C@H](Cc2c[nH]c3ccccc23)NC(=O)[C@H](CCC(=O)O)NC(=O)[C@H](Cc2c[nH]c3ccccc23)NC1=O [c[(WE)4WC]] (cyclo(CWEWEWEWEW)) |  | 6.4 | 350.5±0.2 | 341.1±0.9 | 1.6±0.2 | 347.5±1.2 | 1.1±0.1 | 50 | 82 | 40 | 11 | 
O=C(O)CC[C@@H]1NC(=O)[C@H](Cc2c[nH]c3ccccc23)NC(=O)[C@H](CS)NC(=O)[C@H](Cc2c[nH]c3ccccc23)NC(=O)[C@H](CCC(=O)O)NC(=O)[C@H](Cc2c[nH]c3ccccc23)NC(=O)[C@H](CCC(=O)O)NC(=O)[C@H](Cc2c[nH]c3ccccc23)NC(=O)[C@H](CCC(=O)O)NC(=O)[C@H](Cc2c[nH]c3ccccc23)NC(=O)[C@H](CCC(=O)O)NC(=O)[C@H](Cc2c[nH]c3ccccc23)NC1=O [c[(WE)5WC]] (cyclo(CWEWEWEWEWEW)) |  | 6.3 | 350.3±0.2 | 341.2±0.4 | 2.1±0.3 | 346.7±1.2 | 1.5±0.3 | 68 | 78 | 40 | 13 | 
O=C(O)CC[C@@H]1NC(=O)[C@H](Cc2c[nH]c3ccccc23)NC(=O)[C@H](CS)NC(=O)[C@H](Cc2c[nH]c3ccccc23)NC(=O)[C@H](CCC(=O)O)NC(=O)[C@H](Cc2c[nH]c3ccccc23)NC(=O)[C@H](CCC(=O)O)NC(=O)[C@H](Cc2c[nH]c3ccccc23)NC1=O [c[(WE)3WC]] (cyclo(CWEWEWEW)) |  | 6.1 | 351.0±0.2 | 341.7±0.2 | 1.7±0.3 | 349.1±0.7 | 0.9±0.1 | 63 | 83 | 47 | 6 | 
CWEWEWEWEW [l(CW(EW)4)] |  | 5.7 |  |  |  |  |  |  |  |  |  | 
